In patent US7671258B2, “Surfactant peptide nanostructures, and uses thereof” (Massachusetts Institute of Technology, priority 2001, dated 2010):
Residues, ends and D or L forms follow the SMILES beside them.

Experiment: Cryo-transmission electron microscopy of aqueous peptide solutions (self-assembly)
Assay type: physicochemical
Details: Cryo-TEM, aqueous solution 5 mg/ml, pH 7
Procedure: Cryo-transmission electron microscopy experiments were performed on aqueous solution of the different peptides at a concentration of 5 mg/ml. In order to solubilize these peptides in water, it was necessary to deprotonate the carboxylic groups by adjusting the pH with a solution of sodium hydroxide 0.1N. The oligopeptides investigated start to be soluble in water at pH 5 to 6, depending on the amino acid sequence. All the experiments presented in this work were carried out using peptide solutions at pH 7. […] The cylindrical assemblers present a three-dimensional transient network somehow similar to flexible polymers in their semidilute or concentrated solutions^22. It should be pointed out that, in the electron micrographs, only a two-dimensional projection of the peptides nanotubes could be imaged. The network below and above a defined point in the space could be relatively distant in three dimensions, while appearing superimposed in the two-dimensional projection. […] These self-assemblies have high axial ratios and extend in length to several tens of micrometers. Additionally, one can easily identify many three-fold junctions or branchings connecting the nanotubes and thus forming the final network. […] Alternatively, two nanotubes could fuse together to form a tentative 4-arm branch. It has been shown that this kind of branching is energetically unstable and, thus, those observed in FIG. 3 are most likely due to the 2-D representation of a spatial network.
In fact, one can easily recognize nanotubes of about 50 nm diameter linked by an increased numbers of three-fold junction. As a result, the branches are more abundant than those observed in the samples VVVVVVD (V6D) (SEQ ID NO: 36), […] (SEQ ID NO: 38) and AAAAAAD (A6D) (SEQ ID NO: 37). They have also a smaller axial ratio and a much smaller average diameter of about 10 to 15 nm. […] (SEQ ID NO: 39) is the most hydrophobic compound with the tail constituted of six leucines. […] These molecular assemblies are very similar to threadlike micellar systems made from traditional amphiphilic molecules such as cetyltrimethylammonium bromide (CTAB)^29-30. It should be noted that a large number of vesicle-like spherical assemblies also appear in the TEM micrograph.
Cryo-TEM micrograph at high resolution provides a detailed structure of the peptide nanotubes formed by AAAAAAD (SEQ ID NO: 35) (see FIG. 4). […] Additionally, helical pitches between 150 and 200 nm, depending on the nanotubes diameter, were also observed. Similar results have been documented with hollow cylinders formed of bilayer membrane of diacetylenic lipids^31. Theories based on molecular chirality have been developed to explain the presence of helical markings that wind around the cylinders^32.

Structure (SMILES)	nanotube diameter	morphology of the self-assemblies	morphology of the self-assemblies (listed as AAAAAAD)
CC(=O)N[C@@H](C)C(=O)N[C@@H](C)C(=O)N[C@@H](C)C(=O)N[C@@H](C)C(=O)N[C@@H](C)C(=O)N[C@@H](C)C(=O)N[C@@H](CC(=O)O)C(=O)N[C@@H](CC(=O)O)C(=O)O [A6D2, [Acetyl]-AAAAAADD-CO2] (Ac-AAAAAADD-OH)	about 50 nm	–	–
CC(=O)N[C@@H](C)C(=O)N[C@@H](C)C(=O)N[C@@H](C)C(=O)N[C@@H](C)C(=O)N[C@@H](C)C(=O)N[C@@H](C)C(=O)N[C@@H](CC(=O)O)C(=O)O [A6D, [Acetyl]-AAAAAAD-CO2] (Ac-AAAAAAD-OH)	–	cylindrical morphologies	hollow tubular structures
CC(=O)N[C@@H](CC(C)C)C(=O)N[C@@H](CC(C)C)C(=O)N[C@@H](CC(C)C)C(=O)N[C@@H](CC(C)C)C(=O)N[C@@H](CC(C)C)C(=O)N[C@@H](CC(C)C)C(=O)N[C@@H](CC(=O)O)C(=O)N[C@@H](CC(=O)O)C(=O)O [L6D2, [Acetyl]-LLLLLLDD-CO2] (Ac-LLLLLLDD-OH)	–	does not exhibit any nanotubular structures but rather a network of entangled rodlike micelles	–

Next, values leading:

nanotube diameter	morphology of the self-assemblies	morphology of the self-assemblies (listed as AAAAAAD)	Structure (SMILES)
–	cylindrical morphologies	–	CC(=O)N[C@H](C(=O)N[C@H](C(=O)N[C@H](C(=O)N[C@H](C(=O)N[C@H](C(=O)N[C@H](C(=O)N[C@@H](CC(=O)O)C(=O)N[C@@H](CC(=O)O)C(=O)O)C(C)C)C(C)C)C(C)C)C(C)C)C(C)C)C(C)C [V6D2, [Acetyl]-VVVVVVDD-CO2] (Ac-VVVVVVDD-OH)
–	cylindrical morphologies	–	CC(=O)N[C@H](C(=O)N[C@H](C(=O)N[C@H](C(=O)N[C@H](C(=O)N[C@H](C(=O)N[C@H](C(=O)N[C@@H](CC(=O)O)C(=O)O)C(C)C)C(C)C)C(C)C)C(C)C)C(C)C)C(C)C [V6D, [Acetyl]-VVVVVVD-CO2] (Ac-VVVVVVD-OH)
